Read-outs that look alike come from different tables or passages of the source. Marks after values point to notes of the source that are not given here.
How the values were obtained:
[1] = test system: hiPSC-derived neurons co-cultured with human primary astrocytes in 2D; assay: Ca2+ transient oscillation assay (FDSS), 2D co-culture; type: cell-based; details: for Area under the curve - 2D Mean / Peak Number—2D Mean / Peak amplitude - 2D Mean / Peak width - 2D Mean / Peak-to-peak interval - 2D Mean / activation at 0.37 µM / activation at 1.11 µM / activation at 3.33 µM / activation at 10 µM: 60 min; for effect on peak number / Ca2+ neuronal oscillations, in words: 2D format; for activation at 0.37 µM / activation at 1.11 µM / activation at 3.33 µM / activation at 10 µM: Homo sapiens, 1 h
How it was run: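 hiPSC-derived excitatory neurons (CW50065, Quick-Neuron EX-SeV) co-cultured with human primary astrocytes at 4:1 (10,000:2500 cells per well). Cal-520-loaded cells in HBSS with 2 mM CaCl2 and 10 mM HEPES were pretreated with 0.04% DMSO.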

[2] = test system: hiPSC-derived neurons co-cultured with human primary astrocytes in 3D; assay: Ca2+ transient oscillation assay (FDSS), 3D spheroids; type: cell-based; details: for Area under the curve - 3D Mean / Peak Number—3D Mean / Peak amplitude - 3D Mean / Peak width - 3D Mean / Peak-to-peak interval - 3D Mean: 60 min; for effect on peak number of oscillations, in words: 3D-cultured
How it was run: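 Fura-2 fluorescence was read twice for 20 min each: a baseline 10 min after 0.04% DMSO, and again 60 min after compound addition at nominal final concentration. The 3D co-cultures (1:1 hiPSC neurons from a donor and human astrocytes, 8000 each) matured 5 weeks in BrainPhys medium after a 1-week differentiation.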

[3] = ref PharmaPendium, cited from earlier work
[4] = concentration printed with the symbol
[5] = Table 1, peak plasma concentration in men, free therapeutic Cmax
[6] = Table 2, highest plasma concentration in humans after the therapeutic dose

N[C@@H](CCC(=O)O)C(=O)O [Glutamate]
Area under the curve - 2D Mean ([1]; 1.11 µM): 5.8 % change from baseline
Peak Number—2D Mean ([1]; 1.11 µM): −9.3 % change from baseline
Peak amplitude - 2D Mean ([1]; 1.11 µM): −8.5 % change from baseline
Peak width - 2D Mean ([1]; 1.11 µM): −3.4 % change from baseline
Peak-to-peak interval - 2D Mean ([1]; 1.11 µM): −2.2 % change from baseline
Area under the curve - 2D Mean ([1]; 3.33 µM): −13.0 % change from baseline
Peak Number—2D Mean ([1]; 3.33 µM): −8.9 * % change from baseline
Peak amplitude - 2D Mean ([1]; 3.33 µM): −26.9 % change from baseline
Peak width - 2D Mean ([1]; 3.33 µM): −5.2 % change from baseline
Peak-to-peak interval - 2D Mean ([1]; 3.33 µM): −17.4 % change from baseline
Area under the curve - 2D Mean ([1]; 10 µM): −72.1 % change from baseline
Peak Number—2D Mean ([1]; 10 µM): −60.3 * % change from baseline
Peak amplitude - 2D Mean ([1]; 10 µM): −60.9 % change from baseline
Peak width - 2D Mean ([1]; 10 µM): −67.3 % change from baseline
Peak-to-peak interval - 2D Mean ([1]; 10 µM): 96.3 % change from baseline
Area under the curve - 2D Mean ([1]; 30 µM): −100.0 % change from baseline
Peak Number—2D Mean ([1]; 30 µM): −100.0 * % change from baseline
Peak amplitude - 2D Mean ([1]; 30 µM): −100.0 % change from baseline
Peak width - 2D Mean ([1]; 30 µM): −100.0 % change from baseline
Peak-to-peak interval - 2D Mean ([1]; 30 µM): −100.0 % change from baseline
effect on peak number / Ca2+ neuronal oscillations, in words [1]: significantly reduced peak number
Ca²⁺ Transient Peak Number (2D), concentration in parentheses [1, 4]: 1 µM
Area under the curve - 3D Mean ([2]; 1.11 µM): 116.3 % change from baseline
Peak Number—3D Mean ([2]; 1.11 µM): −7.0 % change from baseline
Peak amplitude - 3D Mean ([2]; 1.11 µM): 85.4 % change from baseline
Peak width - 3D Mean ([2]; 1.11 µM): 12.5 % change from baseline
Peak-to-peak interval - 3D Mean ([2]; 1.11 µM): 11.6 % change from baseline
Area under the curve - 3D Mean ([2]; 3.33 µM): 129.9 % change from baseline
Peak Number—3D Mean ([2]; 3.33 µM): 12.3 % change from baseline
Peak amplitude - 3D Mean ([2]; 3.33 µM): 108.3 % change from baseline
Peak width - 3D Mean ([2]; 3.33 µM): 8.6 % change from baseline
Peak-to-peak interval - 3D Mean ([2]; 3.33 µM): 3.1 % change from baseline
Area under the curve - 3D Mean ([2]; 10 µM): 128.0 % change from baseline
Peak Number—3D Mean ([2]; 10 µM): 20.0 % change from baseline
Peak amplitude - 3D Mean ([2]; 10 µM): 103.9 % change from baseline
Peak width - 3D Mean ([2]; 10 µM): 8.1 % change from baseline
Peak-to-peak interval - 3D Mean ([2]; 10 µM): 0.4 % change from baseline
Area under the curve - 3D Mean ([2]; 30 µM): 116.3 % change from baseline
Peak Number—3D Mean ([2]; 30 µM): 8.4 % change from baseline
Peak amplitude - 3D Mean ([2]; 30 µM): 107.0 % change from baseline
Peak width - 3D Mean ([2]; 30 µM): 2.8 % change from baseline
Peak-to-peak interval - 3D Mean ([2]; 30 µM): −1.6 % change from baseline
effect on peak number of oscillations, in words [2]: did not significantly change the peak number
Ca²⁺ Transient Peak Number (3D), concentration in parentheses [2, 4]: 30 µM
Free Cmax [3, 5]: 1000 to 2000 nM
Free Cmax [3, 6]: 1000 to 2000 nM

CNCCCC12CCC(c3ccccc31)c1ccccc12 [Maprotiline]
effect on peak number / Ca2+ neuronal oscillations, in words [1]: significantly reduced peak number
activation at 0.37 µM ([1]; read-out: Area under the curve - 2D Mean): 12.2%
activation at 0.37 µM ([1]; read-out: Peak Number—2D Mean): -0.7%
activation at 0.37 µM ([1]; read-out: Peak amplitude - 2D Mean): 8.3%
activation at 0.37 µM ([1]; read-out: Peak width - 2D Mean): 4.5%
activation at 0.37 µM ([1]; read-out: Peak-to-peak interval - 2D Mean): 1.8%
activation at 1.11 µM ([1]; 1.11 µM, read-out: Area under the curve - 2D Mean): -55.2%
activation at 1.11 µM ([1]; 1.11 µM, read-out: Peak Number—2D Mean): 0.5%
activation at 1.11 µM ([1]; 1.11 µM, read-out: Peak amplitude - 2D Mean): -19.8%
activation at 1.11 µM ([1]; 1.11 µM, read-out: Peak width - 2D Mean): -57.2%
activation at 1.11 µM ([1]; 1.11 µM, read-out: Peak-to-peak interval - 2D Mean): 11.7%
activation at 3.33 µM ([1]; 3.33 µM, read-out: Area under the curve - 2D Mean): -100%
activation at 3.33 µM ([1]; 3.33 µM, read-out: Peak Number—2D Mean): -100%
activation at 3.33 µM ([1]; 3.33 µM, read-out: Peak amplitude - 2D Mean): -100%
activation at 3.33 µM ([1]; 3.33 µM, read-out: Peak width - 2D Mean): -100%
activation at 3.33 µM ([1]; 3.33 µM, read-out: Peak-to-peak interval - 2D Mean): -100%
activation at 10 µM ([1]; 10 µM, read-out: Area under the curve - 2D Mean): -100%
activation at 10 µM ([1]; 10 µM, read-out: Peak Number—2D Mean): -100%
activation at 10 µM ([1]; 10 µM, read-out: Peak amplitude - 2D Mean): -100%
activation at 10 µM ([1]; 10 µM, read-out: Peak width - 2D Mean): -100%
activation at 10 µM ([1]; 10 µM, read-out: Peak-to-peak interval - 2D Mean): -100%
Area under the curve - 3D Mean ([2]; 0.37 µM): 139.7 % change from baseline
Peak Number—3D Mean ([2]; 0.37 µM): −16.5 % change from baseline
Peak amplitude - 3D Mean ([2]; 0.37 µM): 116.3 % change from baseline
Peak width - 3D Mean ([2]; 0.37 µM): 6.2 % change from baseline
Peak-to-peak interval - 3D Mean ([2]; 0.37 µM): 6.2 % change from baseline
Area under the curve - 3D Mean ([2]; 1.11 µM): 133.4 % change from baseline
Peak Number—3D Mean ([2]; 1.11 µM): −8.2 % change from baseline
Peak amplitude - 3D Mean ([2]; 1.11 µM): 131.3 % change from baseline
Peak width - 3D Mean ([2]; 1.11 µM): −1.0 % change from baseline
Peak-to-peak interval - 3D Mean ([2]; 1.11 µM): 8.4 % change from baseline
Area under the curve - 3D Mean ([2]; 3.33 µM): 123.1 % change from baseline
Peak Number—3D Mean ([2]; 3.33 µM): −7.9 % change from baseline
Peak amplitude - 3D Mean ([2]; 3.33 µM): 130.1 % change from baseline
Peak width - 3D Mean ([2]; 3.33 µM): −3.2 % change from baseline
Peak-to-peak interval - 3D Mean ([2]; 3.33 µM): 10.6 % change from baseline
Area under the curve - 3D Mean ([2]; 10 µM): 11.9 % change from baseline
Peak Number—3D Mean ([2]; 10 µM): 1.9 % change from baseline
Peak amplitude - 3D Mean ([2]; 10 µM): 72.2 % change from baseline
Peak width - 3D Mean ([2]; 10 µM): −40.8 % change from baseline
Peak-to-peak interval - 3D Mean ([2]; 10 µM): −4.1 % change from baseline
effect on peak number of oscillations, in words [2]: did not significantly change the peak number
Free Cmax [3, 5]: 60 nM
Free Cmax [3, 6]: 60 nM

From paper PMC10046961, “High-Throughput Screening Assay for Detecting Drug-Induced Changes in Synchronized Neuronal Oscillations and Potential Seizure Risk Based on Ca^2+ Fluorescence Measurements in Human Induced Pluripotent Stem Cell (hiPSC)-Derived Neuronal 2D and 3D Cultures” (Cells, 2023)
